From ChEMBL document CHEMBL1131848, “8-aminoquinolines as anticoccidials - Part III” (Bioorg Med Chem Lett, 1999)
Values after ≈ are worked out from the molar mass of the structure shown.

How the values were obtained:
[1] = tested on: Eimeria acervulina; test: In vivo anti-coccidial activity against Eimeria acervulina (chick 7-day coccidiosis model); format: functional
[2] = tested on: Eimeria tenella; test: In vivo anti-coccidial activity against Eimeria tenella (chick 7-day coccidiosis model); format: functional
[3] = tested on: Eimeria tenella; test: In vitro anti-coccidial activity against chicken hepatocyte Eimeria tenella; format: functional, organism-based
[4] = tested on: Eimeria acervulina; test: In vitro anti-coccidial activity against chicken hepatocyte Eimeria acervulina; format: functional, organism-based

**Q.** How did the ED95 [1] turn out when `CCN(CC)CCC[C@H](C)Nc1cc(OC)cc2cccnc12` was run?
**A.** >50 p.p.m. in feed

**Q.** What about the ED95 [2] of the same compound?
**A.** >50 p.p.m. in feed

**Q.** And the IC50 [3]?
**A.** 0.2 µg/mL (≈ 0.634 µM)

**Q.** What about the IC50 [4] of the same compound?
**A.** > 1 µg/mL

**Q.** Which ED95 [1] does the source give for `COc1cc(NCCCCCNC2CCCC2)c2ncccc2c1` here?
**A.** >25 p.p.m. in feed

**Q.** What about the ED95 [2] of the same compound?
**A.** >25 p.p.m. in feed

**Q.** What about the IC50 [3] of the same compound?
**A.** 0.2 µg/mL (≈ 0.611 µM)

**Q.** What about the IC50 [4] of the same compound?
**A.** 0.2 µg/mL (≈ 0.611 µM)

**Q.** With `N#CC(c1ccc(Cl)cc1)c1c(Cl)cc(-n2ncc(=O)[nH]c2=O)cc1Cl` (configuration not stated) [DICLAZURIL] as the compound, how does the ED95 [1] read?
**A.** 1 p.p.m. in feed

**Q.** And the ED95 [2]?
**A.** 1 p.p.m. in feed

**Q.** And the IC50 [3]?
**A.** 0.008 µg/mL (≈ 0.0196 µM)

**Q.** What about the IC50 [4] of the same compound?
**A.** 0.008 µg/mL (≈ 0.0196 µM)

**Q.** What does the source list for `COc1cc(NCCCCCN)c2ncccc2c1`?
**A.** ED95 [1]: 100 p.p.m. in feed; ED95 [2]: 100 p.p.m. in feed; IC50 [3]: > 1 µg/mL; IC50 [4]: 1 µg/mL (≈ 3.86 µM)

**Q.** Which ED95 [1] does the source give for `COc1cc(NCCCCCNC2CCCO2)c2ncccc2c1` (configuration not stated) here?
**A.** 12.5 p.p.m. in feed

**Q.** What about the ED95 [2] of the same compound?
**A.** 12.5 p.p.m. in feed

**Q.** What about the IC50 [3] of the same compound?
**A.** 0.2 µg/mL (≈ 0.607 µM)

**Q.** And the IC50 [4]?
**A.** 1 µg/mL (≈ 3.04 µM)

**Q.** `CCNCCCCCNc1cc(OC)cc2cccnc12` was tested. Which ED95 [1] did it give?
**A.** >50 p.p.m. in feed

**Q.** What about the ED95 [2] of the same compound?
**A.** 6.25 p.p.m. in feed

**Q.** And the IC50 [3]?
**A.** 0.2 µg/mL (≈ 0.696 µM)

**Q.** And the IC50 [4]?
**A.** 0.2 µg/mL (≈ 0.696 µM)

**Q.** For `COc1cc(NCCCCCNC(C)C)c2ncccc2c1` [PENTAQUINE], which ED95 [1] is on record?
**A.** 12.5 p.p.m. in feed

**Q.** And the ED95 [2]?
**A.** 12.5 p.p.m. in feed

**Q.** What about the IC50 [3] of the same compound?
**A.** 0.2 µg/mL (≈ 0.663 µM)

**Q.** And the IC50 [4]?
**A.** 0.2 µg/mL (≈ 0.663 µM)

**Q.** For `COc1cc(NCCNC(C)C)c2ncccc2c1`, which ED95 [1] is on record?
**A.** >25 p.p.m. in feed

**Q.** What about the ED95 [2] of the same compound?
**A.** >25 p.p.m. in feed

**Q.** And the IC50 [3]?
**A.** > 1 µg/mL

**Q.** What about the IC50 [4] of the same compound?
**A.** 1 µg/mL (≈ 3.86 µM)

**Q.** `COc1cc(NCCCCCNC2CC[S+]([O-])CC2)c2ncccc2c1` (configuration not stated) was tested. Which ED95 [1] did it give?
**A.** >25 p.p.m. in feed

**Q.** What about the ED95 [2] of the same compound?
**A.** >25 p.p.m. in feed

**Q.** And the IC50 [3]?
**A.** > 1 µg/mL

**Q.** And the IC50 [4]?
**A.** > 5 µg/mL

**Q.** `COc1cc(NCCCCCNC2CCOCC2)c2ncccc2c1` was tested. Which ED95 [1] did it give?
**A.** 12.5 p.p.m. in feed

**Q.** What about the ED95 [2] of the same compound?
**A.** 6.25 p.p.m. in feed

**Q.** And the IC50 [3]?
**A.** 0.2 µg/mL (≈ 0.582 µM)

**Q.** What about the IC50 [4] of the same compound?
**A.** 0.2 µg/mL (≈ 0.582 µM)

**Q.** What does the source list for `COc1cc(NCc2ccc(NC(C)C)cc2)c2ncccc2c1`?
**A.** ED95 [1]: >12.5 p.p.m. in feed; ED95 [2]: >12.5 p.p.m. in feed; IC50 [3]: > 1 µg/mL; IC50 [4]: 1 µg/mL (≈ 3.11 µM)

**Q.** Which results are given for `COc1cc(NCCCCCNC2CCSCC2)c2ncccc2c1`?
**A.** ED95 [1]: >50 p.p.m. in feed; ED95 [2]: >50 p.p.m. in feed; IC50 [3]: 0.2 µg/mL (≈ 0.556 µM); IC50 [4]: 1 µg/mL (≈ 2.78 µM)

**Q.** Which results are given for `COc1cc(NCCCNC(C)C)c2ncccc2c1`?
**A.** ED95 [1]: >25 p.p.m. in feed; ED95 [2]: >25 p.p.m. in feed; IC50 [3]: 0.2 µg/mL (≈ 0.732 µM); IC50 [4]: 0.2 µg/mL (≈ 0.732 µM)

**Q.** How did the ED95 [1] turn out when `COc1cc(NCCCCCNC2CC2)c2ncccc2c1` was run?
**A.** >12.5 p.p.m. in feed

**Q.** And the ED95 [2]?
**A.** >12.5 p.p.m. in feed

**Q.** And the IC50 [3]?
**A.** 0.2 µg/mL (≈ 0.668 µM)

**Q.** And the IC50 [4]?
**A.** 0.2 µg/mL (≈ 0.668 µM)

**Q.** Which results are given for `COc1cc(NCCCCCNCc2ccccc2)c2ncccc2c1`?
**A.** ED95 [1]: >25 p.p.m. in feed; ED95 [2]: >25 p.p.m. in feed; IC50 [3]: 0.2 µg/mL (≈ 0.572 µM); IC50 [4]: 0.2 µg/mL (≈ 0.572 µM)

**Q.** `COc1cc(NCCCCCNC(C)(C)C)c2ncccc2c1` was tested. Which ED95 [1] did it give?
**A.** >25 p.p.m. in feed

**Q.** What about the ED95 [2] of the same compound?
**A.** 6.25 p.p.m. in feed

**Q.** What about the IC50 [3] of the same compound?
**A.** 0.2 µg/mL (≈ 0.634 µM)

**Q.** What about the IC50 [4] of the same compound?
**A.** 0.2 µg/mL (≈ 0.634 µM)

**Q.** What does the source list for `COc1cc(NCCCCNC(C)C)c2ncccc2c1`?
**A.** ED95 [1]: 6.25 p.p.m. in feed; ED95 [2]: 6.25 p.p.m. in feed; IC50 [3]: 0.2 µg/mL (≈ 0.696 µM); IC50 [4]: 0.2 µg/mL (≈ 0.696 µM)

**Q.** For `COc1cc(N[C@@H](C)CCCNC(C)C)c2ncccc2c1`, which ED95 [1] is on record?
**A.** >50 p.p.m. in feed

**Q.** What about the ED95 [2] of the same compound?
**A.** >50 p.p.m. in feed

**Q.** What about the IC50 [3] of the same compound?
**A.** > 1 µg/mL

**Q.** And the IC50 [4]?
**A.** 1 µg/mL (≈ 3.32 µM)
